Measured values taken from patent US10800807B2, “TGR5 modulators and methods of use thereof” (Intercept Pharmaceuticals, Inc., priority 2015, dated 2020).
Changes are numbered by the printed parent chain. ≈ marks a conversion by molar mass, not a printed value. Where two headings read alike, the source gives them in different places.

What was measured:
[1] = Critical micellar concentration (surface tension / dye solubilization); format: physicochemical; details: for CMC: BA sodium salts in 0.1 M NaCl, 25° C.; for STCMC: surface tension at CMC
Method: In the first method, the surface tension was performed by maximum bubble-pressure method using a Sensadyne 6000 tensiometer (Chem-Dyne Research Corp., Milwaukee, Wis.). The surface tension of aqueous solutions at various concentrations (range 0.1-100 mM) of the BA sodium salts in 0.1 M NaCl was measured at 25° C. The surface tension values were plotted against the logarithm of the bile salt concentration; the regression lines corresponding to the two parts of the curve (monomeric and micellar phases) were calculated using the method of least squares. The critical micellar concentration (CMC) value (mM) was obtained by the intersection of the two lines.
The second method is based on the fact that some dyes, specifically Orange OT ([…]), are almost insoluble in water but dissolve in solutions with micellar aggregates that incorporate them; thus, the intensity of color of the solution increases with bile salt concentration (after CMC achievement). The amount of dye solubilized in relation to bile salt concentration was determined spectrophotometrically.
For each bile acid, various solution at different concentrations, between 50 mM and 0.1 mM with appropriate dilutions, were incubated under stirring at room temperature for 3 days with an excess of Orange OT. Then all the solutions were centrifuged and filtered through a 0.22 μm Millipore fiiter (Millipore Corp., Bedford, Mass.).

[2] = target: T1, TGR5 (Homo sapiens, UniProt Q8TDU6); assay: TGR5 activity: cAMP in hTGR5 CHO-k1 cells; format: cell-based; set-up: expressed in transfected cells; host or cells: CHO-k1; details: for Emax: 0.5 h, read-out: hTGR5 CHO Efficacy; for EC50: cAMP
T1 sequence (Q8TDU6 1-330): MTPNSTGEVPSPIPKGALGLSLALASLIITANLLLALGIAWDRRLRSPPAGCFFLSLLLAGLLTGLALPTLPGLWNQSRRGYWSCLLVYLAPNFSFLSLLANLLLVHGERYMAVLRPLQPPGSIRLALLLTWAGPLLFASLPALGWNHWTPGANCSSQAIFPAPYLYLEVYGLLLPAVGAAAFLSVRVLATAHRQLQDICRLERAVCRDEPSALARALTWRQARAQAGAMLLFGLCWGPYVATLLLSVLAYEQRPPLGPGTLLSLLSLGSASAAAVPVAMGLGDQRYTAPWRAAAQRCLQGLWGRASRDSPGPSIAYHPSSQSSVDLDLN

[3] = target: T2, mouse glutathione transferase-tagged FXR-LBD (Mus musculus, UniProt Q60641); assay: FXR AlphaScreen coactivator recruitment assay (mouse); format: biochemical; details: mouse FXR-LBD, value in parentheses; for EC50: read-out: (mFXR) EC50
T2 construct: mouse glutathione transferase-tagged FXR-LBD (generated in-house); made in house
T2 sequence (Q60641 264-488 limits assumed): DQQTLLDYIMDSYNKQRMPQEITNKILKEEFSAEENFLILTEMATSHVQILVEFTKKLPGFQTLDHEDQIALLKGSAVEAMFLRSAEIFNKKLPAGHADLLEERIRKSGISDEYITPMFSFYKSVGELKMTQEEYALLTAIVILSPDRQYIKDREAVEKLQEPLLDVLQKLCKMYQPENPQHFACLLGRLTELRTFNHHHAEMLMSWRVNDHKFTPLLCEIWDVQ
Method: (§1) Activation of the FXR receptor was determined using a recruitment coactivator assay, namely AlphaScreen technology. The assays were performed using human glutathione transferase-tagged FXR-LBD (Life Technologies, USA) and mouse glutathione transferase-tagged FXR-LBD (generated in-house). Briefly, assays were conducted in white, low-volume, 384-well OptiPlate using a final volume of 25 μL containing 10 nM glutathione transferase-tagged FXR-LBD protein and 30 nM biotinylated Src-1 peptide. The stimulation was carried out with different BA concentrations for 30 minutes at 25° C. […] Dose-response curves were performed in triplicate and Z′ factor was used to validate the robustness of the assay.

[4] = target: T1, TGR5; assay: TGR5 activity: intracellular cAMP levels, NCI-H716 cells (HTR-FRET); format: cell-based; set-up: endogenous in cells; host or cells: NCI-H716; details: for Emax: read-out: TGR5 (NCI-H716) Efficacy; for EC50: cAMP
Method: Activation of TGR5 was assessed by measuring the level of cAMP using an HTR-FRET assay. Thus, NCI-H716 cells were cultured on 96-well plates coated with Matrigel (Corning, USA) (0.75 mg/ml) in DMEM supplemented with 10% FCS, 100 units/ml penicillin, and 100 μg/ml streptomycin sulphate. […] The level of intracellular cAMP was determined with Lance kit. Z′ factor was used to validate assays.

[5] = Water solubility; format: physicochemical; details: 0.1 M HCl, pH 1.00, 25° C., read-out: Ws
Method: BA were suspended in 100 ml of 0.1 M HCl, pH 1.00, and the saturated solutions were transferred to a thermostat-equipped water bath maintained at 25° C. After incubation for 1 week, the solutions were filtered on a Millipore filter ([…]), and the concentration of BA was measured by HPLC-ESMS/MS as reported below.

[6] = Critical micellar concentration (surface tension / dye solubilization); format: physicochemical
[7] = pKa
[8] = target: T3, human glutathione transferase-tagged FXR-LBD (Homo sapiens, UniProt Q96RI1); assay: FXR AlphaScreen coactivator recruitment assay (human); format: biochemical; set-up: Emax: dose or concentration left out as unconfirmed; details: for EC50: human FXR-LBD, AlphaScreen, read-out: hFXR EC50; for Emax: read-out: hFXR Efficacy;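 as to hFXR Efficacy: CDCA at 50 µM taken as 100%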
T3 construct: human glutathione transferase-tagged FXR-LBD (Life Technologies, USA); purchased Life Technologies, USA
T3 sequence (Q96RI1 262-486 limits assumed): T2 sequence (Q60641 264-488 limits assumed) with D7H, Y8F, S46N, I50V, A95S, A98S, K107N, V125I, M174I, Y175H
Method: as §1

[9] = Lipophilicity, 1-octanol/water partition coefficient (shake-flask); format: physicochemical; details: pH 8.00, ionized BA
Method: The experiments were carried out on 1 mM initial bile salt solution buffered at pH 8.00 with 0.1 M potassium phosphate buffer to ensure complete ionization of the BA. BA concentration in the water phase before and after partition in 1-octanol was measured by HPLC-ESMS/MS as reported below.

[10] = target: T4, mTGR5 (Mus musculus, UniProt Q80SS6); assay: TGR5 activity: cAMP in mTGR5 CHO-Pi10 clone 4 cells; format: cell-based; details: for Emax: 0.5 h, read-out: (mTGR5 CHO) Efficacy
T4 construct: expressed in transfected cells; host or cells: CHO-Pi10 clone 4
T4 sequence (Q80SS6 1-329): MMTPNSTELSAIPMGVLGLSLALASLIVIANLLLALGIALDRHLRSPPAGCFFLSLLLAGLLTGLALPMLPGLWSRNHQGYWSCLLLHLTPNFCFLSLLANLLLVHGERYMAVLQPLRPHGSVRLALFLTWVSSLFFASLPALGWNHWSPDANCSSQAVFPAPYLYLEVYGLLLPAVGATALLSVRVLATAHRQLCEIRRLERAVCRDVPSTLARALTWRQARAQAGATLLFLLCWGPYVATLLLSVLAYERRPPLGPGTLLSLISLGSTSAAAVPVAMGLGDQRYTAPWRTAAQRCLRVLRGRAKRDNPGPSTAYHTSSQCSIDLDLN

[11] = target: bovine serum albumin (Bos taurus, UniProt P02769); assay: Albumin binding by equilibrium dialysis; format: in vitro ADME; details: 5% bovine serum albumin saline solution, 25° C.
Method: BA was dissolved at a concentration of […] in 5% bovine serum albumin saline solution and left to stand for 24 hours at 25° C. Two milliliters of this solution was dialyzed in cellulose sacs with a molecular weight cut-off of 12-14 kDa (Spectra/Por; Spectrum Medical Industries Inc., Rancho Dominguez, Calif.) against 25 ml of saline solution. The system was equilibrated by mechanical shaking for 72 hours at 25° C. BA concentrations in the starting solution and in the dialyzed solution were determined by HPLC-ES-MS/MS as reported below.

[12] = simulated gastric fluid, thermodynamic from solid
[13] = mTGR5 CHO cells, value in parentheses

Sequence of bovine serum albumin (P02769 25-607): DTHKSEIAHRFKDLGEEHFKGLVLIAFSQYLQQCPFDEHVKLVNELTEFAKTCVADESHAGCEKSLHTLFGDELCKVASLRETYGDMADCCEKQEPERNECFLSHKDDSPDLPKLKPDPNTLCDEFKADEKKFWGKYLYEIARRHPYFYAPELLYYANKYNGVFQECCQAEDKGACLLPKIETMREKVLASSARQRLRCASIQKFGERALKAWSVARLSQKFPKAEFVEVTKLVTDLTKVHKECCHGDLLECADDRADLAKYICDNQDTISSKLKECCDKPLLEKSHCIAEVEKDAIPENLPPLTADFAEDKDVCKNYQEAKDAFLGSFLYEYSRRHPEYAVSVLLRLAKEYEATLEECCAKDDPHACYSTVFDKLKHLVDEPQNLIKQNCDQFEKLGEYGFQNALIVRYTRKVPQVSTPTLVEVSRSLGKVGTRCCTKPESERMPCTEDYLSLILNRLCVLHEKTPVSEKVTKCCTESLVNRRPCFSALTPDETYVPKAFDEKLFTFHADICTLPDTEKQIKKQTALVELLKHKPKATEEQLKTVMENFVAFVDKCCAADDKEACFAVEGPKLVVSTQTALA

| SMILES | CMC [1] [mM] | solubility thermodynamic at 1 week [5, 12] [µM] | CMpH [6] | pKa [7] | LogPA− [9] | Albumin binding (%) [11] [%] | STCMC [1] [Dyne/cm] | solubility thermodynamic at 1 week [5] [µM] | also measured |
| --- | --- | --- | --- | --- | --- | --- | --- | --- | --- |
| CC[C@@H]1C2C[C@H](O)CC[C@]2(C)C2CC[C@@]3(C)C(CC[C@@H]3[C@H](C)Cc3nc(=O)o[nH]3)C2[C@@H]1O (stereo partly drawn) [Compound 14] | 10 | 2020 (≈ 904 µg/mL) | 5.0 | 5 | 1.9 | 99 |  |  | Emax ([2]; hTGR5 CHO cells, Ref. LCA 100% at 10 μM): 107 ± 1%; EC50 ([2]; hTGR5 CHO cells): 480 ± 300 nM; EC50 [3]: 460 nM; Emax ([3]; read-out: (mFXR) Efficacy): 264%; Emax ([4]; 1 h, NCI-H716 cells, Ref. LCA 100% at 10 μM): 110 ± 2%; EC50 ([4]; NCI-H716 cells): 1600 ± 300 nM; EC50 [8]: 75 ± 10 nM; Emax [8]: 165 ± 15%; Emax [10, 13]: 111%; EC50 [10, 13]: 900 nM |
| CC[C@H]1[C@@H](O)C2C3CC[C@H]([C@H](C)C[C@@H](CO)C(=O)O)[C@@]3(C)[C@@H](O)CC2[C@@]2(C)CC[C@@H](O)C[C@@H]12 (stereo partly drawn) [Compound 4, 3α,7α,12α-Trihydroxy-6α-ethyl-23(A)-hydroxymethyl-5β-cholan-24-oic acid] | 5 | 3200 (≈ 1490 µg/mL) | 4.5 | 4.36 | −0.2 | 55 |  |  | Emax ([2]; CHO): 99 ± 1.4%; EC50 ([2]; hTGR5 CHO cells): 4650 ± 500 nM; EC50 [3]: > 150000 nM; Emax ([4]; NCI-H716, 1 h): 77 ± 10%; EC50 ([4]; NCI-H716 cells): 7500 ± 5000 nM; EC50 [8]: 80000 ± 30000 nM; Emax [8]: 20 ± 2%; Emax ([10]; CHO): 102%; EC50 [10, 13]: 1300 nM |
| CC[C@H]1[C@@H](O)C2C3CC[C@H]([C@H](C)CCC(=O)O)[C@@]3(C)CCC2[C@@]2(C)CC[C@@H](O)C[C@@H]12 (stereo partly drawn) [Ref. Cmpd. B, reference compound] | 2.9 | 9 (≈ 3.79 µg/mL) | 7.2 | 5 | 2.5 | 96 | 48.8 |  |  |
| C[C@H](CCC(=O)NCC(=O)O)[C@H]1CC[C@H]2[C@@H]3[C@H](O)C[C@@H]4C[C@H](O)CC[C@]4(C)[C@H]3CC[C@]12C [GCDCA, reference compound] | 2 |  | 6.4 | 3.9 | 0.4 | 85 | 45.2 | 7 (≈ 3.15 µg/mL) |  |
| CC[C@H]1[C@@H](O)C2C3CC[C@H]([C@H](C)CC(F)(F)C(=O)O)[C@@]3(C)[C@@H](O)CC2[C@@]2(C)CC[C@@H](O)C[C@@H]12 (stereo partly drawn) [Compound 3, 3α,7α,12α-Trihydroxy-6α-ethyl-23,23-gemdifluoro-5β-cholan-24-oic acid] | 10 | 225 (≈ 106 µg/mL) | 2.7 | 1.1 | 1.0 |  |  |  |  |
| C[C@H](CC(=O)O)[C@H]1CC[C@H]2[C@@H]3[C@H](O)C[C@@H]4C[C@H](O)CC[C@]4(C)[C@H]3CC[C@]12C [Nor-CDCA, 24-nor-CDCA, reference compound] | 20 |  | 7.9 | 5 | 0.5 | 95 |  | 23 (≈ 8.71 µg/mL) |  |
| C[C@H](CCC(=O)NCC(=O)O)[C@H]1CC[C@H]2[C@@H]3[C@H](O)C[C@@H]4C[C@H](O)CC[C@]4(C)[C@H]3C[C@H](O)[C@]12C [GCA, reference compound] | 8 |  | 6.3 | 3.9 | −0.4 | 65 | 48.8 | 32 (≈ 14.9 µg/mL) |  |
